In patent publication US20060069132A1, “Azolecarboxamide herbicides” (priority 2004, published 2006):

Assays:
Surinam grass = experiment: Test C pre-/postemergence herbicide test; type: in vivo, Urochloa decumbens; conditions: preemergence; for Plant response rating (0 = no effect, 100 = complete control), Surinam Grass: 125 g ai/ha
Summary of the method: (§1)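 Pre/post spray; non-phytotoxic solvent + surfactant. Post-timing 1–4 leaves, 2–18 cm. Read-out: visual % control vs untreated, day 12–14, greenhouse.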

johnsongrass = experiment: Test C pre-/postemergence herbicide test; type: in vivo, Sorghum halepense; conditions: preemergence
Summary of the method: as §1

goosegrass = experiment: Test C pre-/postemergence herbicide test; type: in vivo, Eleusine indica; conditions: preemergence
Summary of the method: as §1

soybean = experiment: Test C pre-/postemergence herbicide test; type: in vivo, Glycine max; conditions: preemergence; for Plant response rating (0 = no effect, 100 = complete control), Soybean: 125 g ai/ha
Summary of the method: as §1

velvetleaf = experiment: Test A pre-/postemergence herbicide test; type: in vivo, Abutilon theophrasti
Summary of the method: (§2)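 Greenhouse injury scoring (0–100, complete control = 100) at approximately ten days follows simultaneous pre- and postemergence application. Soil received a directed spray after seeding; seedlings of 2–10 cm at the one- to two-leaf stage were sprayed to runoff.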

bermudagrass = experiment: Test C pre-/postemergence herbicide test; type: in vivo, Cynodon dactylon; conditions: for Plant response rating, Bermudagrass / Plant response rating (0 = no effect, 100 = complete control), Bermudagrass: preemergence
Summary of the method: as §1

pigweed = experiment: Test C pre-/postemergence herbicide test; type: in vivo, Amaranthus retroflexus; conditions: preemergence
Summary of the method: as §1

morningglory = experiment: Test A pre-/postemergence herbicide test; type: in vivo, Ipomoea spp.
Summary of the method: as §2

cocklebur = experiment: Test C pre-/postemergence herbicide test; type: in vivo, Xanthium strumarium; conditions: for Plant response rating, Cocklebur / Plant response rating (0 = no effect, 100 = complete control), Cocklebur: preemergence
Summary of the method: as §1

ducksalad = experiment: Test C flooded paddy test; type: in vivo, Heteranthera limosa; conditions: for Plant response rating, Ducksalad: 500 g ai/ha, visual rating after 12 to 14 days
[1] = system: smallflower umbrella sedge; experiment: Test C flooded paddy test; type: in vivo, Cyperus difformis; conditions: for Plant response rating, Sedge, Umbrella: 500 g ai/ha, visual rating after 12 to 14 days
[2] = 500 g ai/ha, scale 0 to 100 (0 no effect, 100 complete control), visual, 12 to 14 days
[3] = 125 g ai/ha, scale 0 (no effect) to 100 (complete control), visual, 12 to 14 days
[4] = Postemergence, 500 g ai/ha, 0 to 100 scale, 0 no effect, 100 complete control
[5] = Postemergence, 2000 g ai/ha, 0 to 100 scale, 0 no effect, 100 complete control
[6] = Preemergence, 2000 g ai/ha, visual rating, 0 to 100 scale (0 no effect, 100 complete control)
[7] = preemergence, 500 g ai/ha, visual injury, 0 to 100 scale (0 no effect, 100 complete control)
[8] = 62 g ai/ha, scale 0 to 100, 0 no effect, 100 complete control
[9] = Preemergence, 500 g ai/ha, scale 0 to 100, 0 no effect, 100 complete control
[10] = 125 g ai/ha, scale 0 to 100 (0 no effect, 100 complete control)
[11] = 250 g ai/ha, scale of 0 to 100, 0 is no effect, 100 is complete control
[12] = scale 0 to 100 (0 no effect, 100 complete control)

CCNC(=O)c1ccc(F)c(NC(=O)C2CC(C(C)(C)C)=NN2CC)c1 (racemic) [Compound 269]
Plant response rating, Surinam Grass (Surinam grass; 62 g ai/ha, scale 0 to 100): 5
Plant response rating, Surinam Grass (Surinam grass; 250 g ai/ha, scale 0-100): 85
Plant response rating, Surinam Grass (Surinam grass; [2]): 95
Plant response rating, Johnsongrass (johnsongrass; 62 g ai/ha, scale 0 to 100): 40
Plant response rating, Johnsongrass (johnsongrass; [3]): 60
Plant response rating, Johnsongrass (johnsongrass; 250 g ai/ha, scale 0-100): 100
Plant response rating, Johnsongrass (johnsongrass; [2]): 100
Plant response rating, Goosegrass (goosegrass; 62 g ai/ha, scale 0 to 100): 70
Plant response rating, Goosegrass (goosegrass; [3]): 85
Plant response rating, Goosegrass (goosegrass; 250 g ai/ha, scale 0-100): 95
Plant response rating, Goosegrass (goosegrass; [2]): 100
Plant response rating, Soybean (soybean; 62 g ai/ha, scale 0 to 100): 0
Plant response rating, Soybean (soybean; 250 g ai/ha, scale 0-100): 50
Plant response rating, Soybean (soybean; [2]): 60
Velvetleaf plant response rating (velvetleaf; [4]): 25
Plant response rating, Velvetleaf (velvetleaf; [5]): 30
Velvetleaf plant response rating (velvetleaf; [6]): 100
Velvetleaf plant response rating (velvetleaf; [7]): 40
Plant response rating, Bermudagrass (bermudagrass; [8]): 100
Plant response rating, Bermudagrass (bermudagrass; [3]): 100
Plant response rating, Bermudagrass (bermudagrass; 250 g ai/ha, scale 0-100): 100
Bermudagrass plant response rating (bermudagrass; [9]): 100
Plant response rating, Pigweed (pigweed; 62 g ai/ha, scale 0 to 100): 100
Plant response rating, Pigweed (pigweed; [3]): 100
Plant response rating, Pigweed (pigweed; 250 g ai/ha, scale 0-100): 100
Plant response rating, Pigweed (pigweed; [2]): 100
Morningglory plant response rating (morningglory; [4]): 20
Plant response rating, Morningglory (morningglory; [5]): 35
Morningglory plant response rating (morningglory; [6]): 30
Morningglory plant response rating (morningglory; [7]): 20
Plant response rating, Cocklebur (cocklebur; 62 g ai/ha, scale 0 to 100): 0
Plant response rating, Cocklebur (cocklebur; [3]): 0
Plant response rating, Cocklebur (cocklebur; 250 g ai/ha, scale 0-100): 5
Cocklebur plant response rating (cocklebur; [9]): 50
Ducksalad plant response rating (ducksalad; 62 g ai/ha, scale 0 to 100): 55
Ducksalad plant response rating (ducksalad; [10]): 80
Ducksalad plant response rating (ducksalad; [11]): 80
Plant response rating, Ducksalad (ducksalad; [12]): 85
Sedge, Umbrella plant response rating ([1]; 62 g ai/ha, scale 0 to 100): 45
Sedge, Umbrella plant response rating [1, 10]: 80
Sedge, Umbrella plant response rating [1, 11]: 80
Plant response rating, Sedge, Umbrella [1, 12]: 85

C=CCNC(=O)c1cccc(NC(=O)c2nn(C(C)C)nc2CC)c1 [Compound 382]
Plant response rating (0 = no effect, 100 = complete control), Surinam Grass (Surinam grass): 95
Plant response rating, Surinam Grass (Surinam grass; 250 g ai/ha, scale 0-100): 100
Plant response rating, Surinam Grass (Surinam grass; [2]): 100
Plant response rating, Johnsongrass (johnsongrass; 62 g ai/ha, scale 0 to 100): 70
Plant response rating (0 = no effect, 100 = complete control), Johnsongrass (johnsongrass; 125 g ai/ha): 95
Plant response rating, Johnsongrass (johnsongrass; 250 g ai/ha, scale 0-100): 100
Plant response rating, Johnsongrass (johnsongrass; [2]): 100
Plant response rating, Goosegrass (goosegrass; 62 g ai/ha, scale 0 to 100): 75
Plant response rating (0 = no effect, 100 = complete control), Goosegrass (goosegrass; 125 g ai/ha): 90
Plant response rating, Goosegrass (goosegrass; 250 g ai/ha, scale 0-100): 95
Plant response rating, Goosegrass (goosegrass; [2]): 100
Plant response rating, Soybean (soybean; 62 g ai/ha, scale 0 to 100): 100
Plant response rating (0 = no effect, 100 = complete control), Soybean (soybean): 100
Plant response rating, Soybean (soybean; 250 g ai/ha, scale 0-100): 100
Plant response rating, Soybean (soybean; [2]): 100
Plant response rating, Bermudagrass (bermudagrass; [8]): 60
Plant response rating (0 = no effect, 100 = complete control), Bermudagrass (bermudagrass; 125 g ai/ha): 80
Plant response rating, Bermudagrass (bermudagrass; 250 g ai/ha, scale 0-100): 85
Plant response rating, Bermudagrass (bermudagrass; [2]): 90
Plant response rating, Pigweed (pigweed; 62 g ai/ha, scale 0 to 100): 95
Plant response rating (0 = no effect, 100 = complete control), Pigweed (pigweed; 125 g ai/ha): 95
Plant response rating, Pigweed (pigweed; 250 g ai/ha, scale 0-100): 100
Plant response rating, Pigweed (pigweed; [2]): 100
Plant response rating, Cocklebur (cocklebur; 62 g ai/ha, scale 0 to 100): 0
Plant response rating (0 = no effect, 100 = complete control), Cocklebur (cocklebur; 125 g ai/ha): 15
Plant response rating, Cocklebur (cocklebur; 250 g ai/ha, scale 0-100): 20
Plant response rating, Cocklebur (cocklebur; [2]): 45
Ducksalad plant response rating (ducksalad; 62 g ai/ha, scale 0 to 100): 25
Ducksalad plant response rating (ducksalad; [10]): 65
Ducksalad plant response rating (ducksalad; [11]): 80
Plant response rating, Ducksalad (ducksalad; [12]): 85
Sedge, Umbrella plant response rating ([1]; 62 g ai/ha, scale 0 to 100): 75
Sedge, Umbrella plant response rating [1, 10]: 80
Sedge, Umbrella plant response rating [1, 11]: 85
Plant response rating, Sedge, Umbrella [1, 12]: 90

CCc1nn(C(C)C)nc1C(=O)Nc1cccc(C(=O)N(C)CC)c1 [Compound 386]
Plant response rating, Surinam Grass (Surinam grass; 62 g ai/ha, scale 0 to 100): 80
Plant response rating (0 = no effect, 100 = complete control), Surinam Grass (Surinam grass): 80
Plant response rating, Surinam Grass (Surinam grass; 250 g ai/ha, scale 0-100): 95
Plant response rating, Surinam Grass (Surinam grass; [2]): 95
Plant response rating, Johnsongrass (johnsongrass; 62 g ai/ha, scale 0 to 100): 85
Plant response rating (0 = no effect, 100 = complete control), Johnsongrass (johnsongrass; 125 g ai/ha): 100
Plant response rating, Johnsongrass (johnsongrass; 250 g ai/ha, scale 0-100): 100
Plant response rating, Johnsongrass (johnsongrass; [2]): 100
Plant response rating, Goosegrass (goosegrass; 62 g ai/ha, scale 0 to 100): 85
Plant response rating (0 = no effect, 100 = complete control), Goosegrass (goosegrass; 125 g ai/ha): 95
Plant response rating, Goosegrass (goosegrass; 250 g ai/ha, scale 0-100): 95
Plant response rating, Goosegrass (goosegrass; [2]): 95
Plant response rating, Soybean (soybean; 62 g ai/ha, scale 0 to 100): 90
Plant response rating (0 = no effect, 100 = complete control), Soybean (soybean): 90
Plant response rating, Soybean (soybean; 250 g ai/ha, scale 0-100): 95
Plant response rating, Soybean (soybean; [2]): 95
Plant response rating, Bermudagrass (bermudagrass; [8]): 90
Plant response rating (0 = no effect, 100 = complete control), Bermudagrass (bermudagrass; 125 g ai/ha): 95
Plant response rating, Bermudagrass (bermudagrass; 250 g ai/ha, scale 0-100): 95
Plant response rating, Bermudagrass (bermudagrass; [2]): 95
Plant response rating, Pigweed (pigweed; 62 g ai/ha, scale 0 to 100): 100
Plant response rating (0 = no effect, 100 = complete control), Pigweed (pigweed; 125 g ai/ha): 100
Plant response rating, Pigweed (pigweed; 250 g ai/ha, scale 0-100): 100
Plant response rating, Pigweed (pigweed; [2]): 100
Plant response rating, Cocklebur (cocklebur; 62 g ai/ha, scale 0 to 100): 0
Plant response rating (0 = no effect, 100 = complete control), Cocklebur (cocklebur; 125 g ai/ha): 20
Plant response rating, Cocklebur (cocklebur; 250 g ai/ha, scale 0-100): 30
Plant response rating, Cocklebur (cocklebur; [2]): 70
Ducksalad plant response rating (ducksalad; 62 g ai/ha, scale 0 to 100): 25
Ducksalad plant response rating (ducksalad; [10]): 60
Ducksalad plant response rating (ducksalad; [11]): 85
Plant response rating, Ducksalad (ducksalad; [12]): 85
Sedge, Umbrella plant response rating ([1]; 62 g ai/ha, scale 0 to 100): 65
Sedge, Umbrella plant response rating [1, 10]: 75
Sedge, Umbrella plant response rating [1, 11]: 80
Plant response rating, Sedge, Umbrella [1, 12]: 80

CCc1nn(C(C)C)nc1C(=O)Nc1cccc(C(=S)N(C)C)c1 [Compound 409]
Plant response rating, Surinam Grass (Surinam grass; 62 g ai/ha, scale 0 to 100): 50
Plant response rating (0 = no effect, 100 = complete control), Surinam Grass (Surinam grass): 85
Plant response rating, Surinam Grass (Surinam grass; [2]): 95
Plant response rating, Johnsongrass (johnsongrass; 62 g ai/ha, scale 0 to 100): 35
Plant response rating (0 = no effect, 100 = complete control), Johnsongrass (johnsongrass; 125 g ai/ha): 80
Plant response rating, Johnsongrass (johnsongrass; 250 g ai/ha, scale 0-100): 95
Plant response rating, Johnsongrass (johnsongrass; [2]): 95
Plant response rating, Goosegrass (goosegrass; 62 g ai/ha, scale 0 to 100): 80
Plant response rating (0 = no effect, 100 = complete control), Goosegrass (goosegrass; 125 g ai/ha): 90
Plant response rating, Goosegrass (goosegrass; 250 g ai/ha, scale 0-100): 95
Plant response rating, Goosegrass (goosegrass; [2]): 95
Plant response rating, Soybean (soybean; 62 g ai/ha, scale 0 to 100): 0
Plant response rating (0 = no effect, 100 = complete control), Soybean (soybean): 80
Plant response rating, Soybean (soybean; [2]): 100
Plant response rating, Bermudagrass (bermudagrass; [8]): 40
Plant response rating (0 = no effect, 100 = complete control), Bermudagrass (bermudagrass; 125 g ai/ha): 50
Plant response rating, Bermudagrass (bermudagrass; 250 g ai/ha, scale 0-100): 85
Plant response rating, Bermudagrass (bermudagrass; [2]): 85
Plant response rating, Pigweed (pigweed; 62 g ai/ha, scale 0 to 100): 100
Plant response rating, Pigweed (pigweed; [2]): 100
Plant response rating, Cocklebur (cocklebur; 62 g ai/ha, scale 0 to 100): 0
Plant response rating (0 = no effect, 100 = complete control), Cocklebur (cocklebur; 125 g ai/ha): 30
Plant response rating, Cocklebur (cocklebur; 250 g ai/ha, scale 0-100): 70
Plant response rating, Cocklebur (cocklebur; [2]): 80
Ducksalad plant response rating (ducksalad; 62 g ai/ha, scale 0 to 100): 30
Ducksalad plant response rating (ducksalad; [10]): 30
Ducksalad plant response rating (ducksalad; [11]): 80
Plant response rating, Ducksalad (ducksalad; [12]): 85
Sedge, Umbrella plant response rating ([1]; 62 g ai/ha, scale 0 to 100): 70
Sedge, Umbrella plant response rating [1, 10]: 75
Sedge, Umbrella plant response rating [1, 11]: 85
Plant response rating, Sedge, Umbrella [1, 12]: 90
